The source of these data is patent publication US10703756B2, “Pyrrolo[2,3-D]pyrimidinyl, pyrrolo[2,3-B]pyrazinyl, pyrrolo[2,3-B]pyridinyl acrylamides and epoxides thereof” (Pfizer Inc., priority 2015, dated 2020).

Usually IC50 stands for the concentration needed to halve the response being measured.

Structures are written as SMILES.

Assay [1] has as its target T1, JAK3 enzyme (Homo sapiens, UniProt P52333).
T1 sequence (P52333 1-1124): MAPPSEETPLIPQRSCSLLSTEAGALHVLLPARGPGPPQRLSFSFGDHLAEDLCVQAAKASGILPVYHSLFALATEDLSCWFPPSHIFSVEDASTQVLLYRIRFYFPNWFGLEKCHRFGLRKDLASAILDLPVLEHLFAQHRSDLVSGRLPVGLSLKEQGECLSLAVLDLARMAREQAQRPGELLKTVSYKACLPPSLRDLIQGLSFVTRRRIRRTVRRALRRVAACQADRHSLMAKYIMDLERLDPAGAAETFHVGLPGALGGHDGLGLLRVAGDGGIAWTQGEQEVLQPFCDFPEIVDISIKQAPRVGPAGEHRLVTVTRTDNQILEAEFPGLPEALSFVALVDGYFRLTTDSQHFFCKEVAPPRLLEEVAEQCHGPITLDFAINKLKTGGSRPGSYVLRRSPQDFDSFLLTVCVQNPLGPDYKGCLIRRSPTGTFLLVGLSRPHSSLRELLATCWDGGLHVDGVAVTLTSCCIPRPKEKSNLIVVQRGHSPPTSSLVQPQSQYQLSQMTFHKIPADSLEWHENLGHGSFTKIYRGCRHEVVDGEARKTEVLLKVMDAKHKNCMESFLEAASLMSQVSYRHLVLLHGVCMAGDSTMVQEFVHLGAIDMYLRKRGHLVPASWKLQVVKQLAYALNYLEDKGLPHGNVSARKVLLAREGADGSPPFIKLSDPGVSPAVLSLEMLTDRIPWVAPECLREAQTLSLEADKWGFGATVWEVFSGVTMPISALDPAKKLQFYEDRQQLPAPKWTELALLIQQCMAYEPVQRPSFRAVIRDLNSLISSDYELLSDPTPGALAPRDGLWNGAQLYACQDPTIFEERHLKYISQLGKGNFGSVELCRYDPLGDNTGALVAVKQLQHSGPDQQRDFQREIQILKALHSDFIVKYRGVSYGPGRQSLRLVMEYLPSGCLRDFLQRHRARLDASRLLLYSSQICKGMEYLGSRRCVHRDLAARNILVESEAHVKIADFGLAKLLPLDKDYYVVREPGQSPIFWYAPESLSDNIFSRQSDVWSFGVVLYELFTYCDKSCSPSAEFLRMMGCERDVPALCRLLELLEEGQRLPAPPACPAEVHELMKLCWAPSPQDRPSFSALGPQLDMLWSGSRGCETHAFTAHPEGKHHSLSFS
Description: JAK Caliper Enzyme Assay at 4 μM ATP. It counts as biochemical. The method in brief:
(§1)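 Peptide phosphorylation by the kinase, adjusted to 20%-30% conversion, is measured by microfluidic separation of substrate and product on a Caliper LC3000. Compounds run as 11-point half-log series from a 600 μM DMSO top concentration.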

For assay [2], the target named is T1, JAK3 enzyme. Put plainly: JAK Caliper Enzyme Assay at 1 mM ATP. It counts as biochemical. The method in brief: as §1

Turning to `C=CC(=O)N1CCN(c2cnc3[nH]cc(C(=O)N[C@H]4CCO[C@H]4C)c3n2)CC1(C)C` [Example 166, 3-({[2-(4-acryloyl-3,3-dimethylpiperazin-1-yl)-5H-pyrrolo[2,3-b]pyrazin-7-yl]carbonyl}amino)-2,5-anhydro-1,3,4-trideoxy-L-threo-pentitol], the figures for the IC50 in assay [1] and in assay [2] were 0.667 nM and 58 nM, respectively.
Consider `C=CC(=O)N1CC(CF)CC(Nc2ncnc3[nH]ccc23)C1` (mixture of isomers) [Example 102, Cis-racemic-1-[3-(fluoromethyl-5-(7H-pyrrolo[2,3-d]pyrimidin-4-ylamino)piperidin-1-yl]prop-2-en-1-one], for which the results for the half-maximal inhibitory concentration (IC50) in assay [1] and in assay [2] were 1.9 nM and 142 nM, respectively.
Regarding `C=CC(=O)N1CC[C@@H](Nc2cnc3[nH]cc(C(=O)N[C@H](C)COC)c3n2)[C@@H](OC)C1` [Example 331, 2-{[(3S,4R)-1-acryloyl-3-methoxypiperidin-4-yl]amino}-N-[(2R)-1-methoxypropan-2-yl]-5H-pyrrolo[2,3-b]pyrazine-7-carboxamide], the IC50 in assay [1] turned out to be 0.313 nM; in assay [2] it was 42 nM.
